Target: T1, human recombinant full-length fatty acid synthase (FASN) (Homo sapiens, UniProt P49327)
T1 construct: 40 nM human recombinant full-length fatty acid synthase (produced in-house in SF9 cells); made in house; host or cells: SF9 insect cells
Test: Biochemical activity testing of human fatty acid synthase FASN (NADPH fluorescence intensity enzyme assay)
Details: human recombinant FASN, enzyme assay
Method in brief: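 Recombinant full-length human FASN from SF9 cells, preincubated with compound (10 concentrations, top 30 μM final, 1% DMSO) and NADPH ≥15 min at room temperature, pH 7.0. Acetyl-CoA and malonyl-CoA added; NADPH fluorescence (340/460 nm) read before and after 30 min. IC50 from signal difference, normalised to uninhibited reaction and GSK837149A zero control.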

T1 sequence (P49327 whole entry): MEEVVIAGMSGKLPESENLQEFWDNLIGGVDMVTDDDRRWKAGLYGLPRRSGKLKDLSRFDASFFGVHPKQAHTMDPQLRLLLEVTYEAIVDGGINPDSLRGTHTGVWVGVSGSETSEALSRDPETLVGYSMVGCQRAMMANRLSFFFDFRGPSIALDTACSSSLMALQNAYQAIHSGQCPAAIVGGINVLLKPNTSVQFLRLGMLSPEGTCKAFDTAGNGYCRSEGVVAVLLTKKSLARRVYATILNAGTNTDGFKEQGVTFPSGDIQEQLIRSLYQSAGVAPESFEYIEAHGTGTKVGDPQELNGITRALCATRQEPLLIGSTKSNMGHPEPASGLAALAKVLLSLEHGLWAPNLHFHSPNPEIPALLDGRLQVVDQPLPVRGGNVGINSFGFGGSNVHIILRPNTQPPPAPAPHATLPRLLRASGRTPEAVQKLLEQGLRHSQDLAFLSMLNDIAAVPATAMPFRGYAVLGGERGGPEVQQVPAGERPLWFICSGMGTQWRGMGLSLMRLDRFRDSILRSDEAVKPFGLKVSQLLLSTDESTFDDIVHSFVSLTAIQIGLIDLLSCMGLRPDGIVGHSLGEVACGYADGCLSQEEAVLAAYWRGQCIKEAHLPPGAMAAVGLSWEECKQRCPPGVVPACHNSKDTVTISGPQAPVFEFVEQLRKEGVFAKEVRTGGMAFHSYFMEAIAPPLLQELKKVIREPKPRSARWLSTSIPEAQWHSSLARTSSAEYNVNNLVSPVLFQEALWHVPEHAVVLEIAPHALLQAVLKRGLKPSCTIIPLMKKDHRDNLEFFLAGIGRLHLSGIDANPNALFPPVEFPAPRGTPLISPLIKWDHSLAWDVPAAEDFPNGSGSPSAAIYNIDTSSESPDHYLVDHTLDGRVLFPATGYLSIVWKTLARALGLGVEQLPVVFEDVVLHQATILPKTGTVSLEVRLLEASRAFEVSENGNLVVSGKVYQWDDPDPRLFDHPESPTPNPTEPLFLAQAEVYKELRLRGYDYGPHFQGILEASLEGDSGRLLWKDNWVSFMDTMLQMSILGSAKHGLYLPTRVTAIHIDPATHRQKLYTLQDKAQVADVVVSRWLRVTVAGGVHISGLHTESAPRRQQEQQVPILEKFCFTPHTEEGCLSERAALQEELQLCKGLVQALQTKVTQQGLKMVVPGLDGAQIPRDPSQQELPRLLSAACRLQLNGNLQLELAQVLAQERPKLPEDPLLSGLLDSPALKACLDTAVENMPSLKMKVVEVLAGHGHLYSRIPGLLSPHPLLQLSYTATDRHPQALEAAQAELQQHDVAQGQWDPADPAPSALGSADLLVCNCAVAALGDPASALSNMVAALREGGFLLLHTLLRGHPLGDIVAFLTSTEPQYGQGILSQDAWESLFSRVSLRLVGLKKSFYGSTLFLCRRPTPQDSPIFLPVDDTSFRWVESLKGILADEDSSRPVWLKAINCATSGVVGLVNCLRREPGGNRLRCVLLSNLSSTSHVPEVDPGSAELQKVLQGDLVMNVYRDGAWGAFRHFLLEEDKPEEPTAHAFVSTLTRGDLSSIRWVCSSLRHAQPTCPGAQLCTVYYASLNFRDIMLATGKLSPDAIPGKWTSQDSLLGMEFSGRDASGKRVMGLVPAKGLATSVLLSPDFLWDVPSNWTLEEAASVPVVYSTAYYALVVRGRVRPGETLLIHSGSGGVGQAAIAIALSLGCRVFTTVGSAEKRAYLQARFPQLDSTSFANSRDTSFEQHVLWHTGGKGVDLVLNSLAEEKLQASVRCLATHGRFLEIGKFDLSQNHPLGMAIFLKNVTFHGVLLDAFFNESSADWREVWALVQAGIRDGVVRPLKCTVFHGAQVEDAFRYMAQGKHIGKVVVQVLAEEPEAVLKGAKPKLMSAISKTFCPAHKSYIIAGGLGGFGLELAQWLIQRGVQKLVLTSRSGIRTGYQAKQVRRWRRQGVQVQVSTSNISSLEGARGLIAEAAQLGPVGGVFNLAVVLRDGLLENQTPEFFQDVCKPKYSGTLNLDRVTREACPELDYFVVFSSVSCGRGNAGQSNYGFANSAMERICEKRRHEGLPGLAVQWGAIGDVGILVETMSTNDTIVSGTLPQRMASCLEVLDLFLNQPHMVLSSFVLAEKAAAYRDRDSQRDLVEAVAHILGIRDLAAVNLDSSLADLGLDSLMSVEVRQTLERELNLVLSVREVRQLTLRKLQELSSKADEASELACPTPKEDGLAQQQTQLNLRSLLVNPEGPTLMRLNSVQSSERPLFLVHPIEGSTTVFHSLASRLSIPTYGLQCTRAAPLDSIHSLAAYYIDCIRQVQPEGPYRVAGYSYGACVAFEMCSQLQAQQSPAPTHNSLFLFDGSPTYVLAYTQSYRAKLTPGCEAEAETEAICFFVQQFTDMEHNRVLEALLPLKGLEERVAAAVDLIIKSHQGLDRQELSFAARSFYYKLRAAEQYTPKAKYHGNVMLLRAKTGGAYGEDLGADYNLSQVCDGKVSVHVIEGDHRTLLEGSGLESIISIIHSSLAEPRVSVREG

Structure (SMILES)	IC50 [nM]
CCC(=O)N[C@H]1CC[C@@H](n2cnnc2-c2ccc(-c3cc4cn[nH]c4cc3C)cc2)C1 [Compound A98, N-((1S,3R)-3-{3-[4-(6-Methyl-1H-indazol-5-yl)-phenyl]-[1,2,4]triazol-4-yl}-cyclopentyl)-propionamide]	< 300
CCNC(=O)[C@H]1CC[C@@H](n2nncc2-c2ccc(-c3ccc(C(N)=O)cc3)cc2)C1 [Compound A99, 4′-[3-((1R,3S)-3-Ethylcarbamoyl-cyclopentyl)-3H-[1,2,3]triazol-4-yl]-biphenyl-4-carboxylic acid amide]	300 to 3000
CCNC(=O)[C@H]1CC[C@@H](n2nncc2-c2ccc(-c3ccc(C(=O)O)cc3)cc2)C1 [Compound A100, 4′-[3-((1R,3S)-3-Ethylcarbamoyl-cyclopentyl)-3H-[1,2,3]triazol-4-yl]-biphenyl-4-carboxylic acid]	300 to 3000
CCNC(=O)[C@H]1CC[C@@H](n2nncc2-c2ccc(-c3ccc(OC)c(OC)c3)cc2)C1 [Compound A102, (1S,3R)-3-[5-(3′,4′-Dimethoxy-biphenyl-4-yl)-[1,2,3]triazol-1-yl]-cyclopentanecarboxylic acid ethylamide]	< 300
CCNC(=O)[C@H]1CC[C@@H](n2nncc2-c2ccc(-c3ccc(OCC4CC4)cc3)cc2)C1 [Compound A103, (1S,3R)-3-[5-(4′-Cyclopropylmethoxy-biphenyl-4-yl)-[1,2,3]triazol-1-yl]-cyclopentanecarboxylic acid ethylamide]	< 300
CCNC(=O)[C@H]1CC[C@@H](n2nncc2-c2ccc(-c3ccc(Cl)c(F)c3)cc2)C1 [Compound A104, (1S,3R)-3-[5-(4′-Chloro-3′-fluoro-biphenyl-4-yl)-[1,2,3]triazol-1-yl]-cyclopentanecarboxylic acid ethylamide]	< 300
CCNC(=O)[C@H]1CC[C@@H](n2nncc2-c2ccc(-c3ccc(C#N)c(F)c3)cc2)C1 [Compound A105, (1S,3R)-3-[5-(4′-Cyano-3′-fluoro-biphenyl-4-yl)-[1,2,3]triazol-1-yl]-cyclopentanecarboxylic acid ethylamide]	< 300
CCNC(=O)[C@H]1CC[C@@H](n2nncc2-c2ccc(-c3ccc(C#N)cc3F)cc2)C1 [Compound A106, (1S,3R)-3-[5-(4′-Cyano-2′-fluoro-biphenyl-4-yl)-[1,2,3]triazol-1-yl]-cyclopentanecarboxylic acid ethylamide]	< 300
CCC(=O)N[C@H]1CC[C@@H](n2nncc2-c2ccc(-c3ccc4[nH]ccc4c3)nc2)C1 [Compound A107, N-((1S,3R)-3-{5-[6-(1H-Indol-5-yl)-pyridin-3-yl]-[1,2,3]triazol-1-yl}-cyclopentyl)-propionamide]	< 300
CCC(=O)N[C@H]1CC[C@@H](n2nncc2-c2ccc(-c3ccc4[nH]ccc4c3F)nc2)C1 [Compound A108, N-((1S,3R)-3-{5-[6-(4-Fluoro-1H-indol-5-yl)-pyridin-3-yl]-[1,2,3]triazol-1-yl}-cyclopentyl)-propionamide]	< 300
CCC(=O)N[C@H]1CC[C@@H](n2nncc2-c2ccc(-c3ccc4nccn4c3)nc2)C1 [Compound A109, N-{(1S,3R)-3-[5-(6-Imidazo[1,2-a]pyridin-6-yl-pyridin-3-yl)-[1,2,3]triazol-1-yl]-cyclopentyl}-propionamide]	300 to 3000
CCC(=O)N[C@H]1CC[C@@H](n2nncc2-c2ccc(-c3ccc4[nH]ccc4c3F)cc2)C1 [Compound A110, N-((1S,3R)-3-{5-[4-(4-Fluoro-1H-indol-5-yl)-phenyl]-[1,2,3]triazol-1-yl}-cyclopentyl)-propionamide]	< 300
CCC(=O)N[C@H]1CC[C@@H](n2nncc2-c2ccc(-c3ccc4nccn4c3)cc2)C1 [Compound A111, N-{(1S,3R)-3-[5-(4-Imidazo[1,2-a]pyridin-6-yl-phenyl)-[1,2,3]triazol-1-yl]-cyclopentyl}-propionamide]	< 300
CCC(=O)N[C@H]1CC[C@@H](n2nncc2-c2ccc(-c3cc4cc[nH]c4cc3F)cc2)C1 [Compound A112, N-((1S,3R)-3-{5-[4-(6-Fluoro-1H-indol-5-yl)-phenyl]-[1,2,3]triazol-1-yl}-cyclopentyl)-propionamide]	< 300

Continued, values first:

IC50 [nM]	Structure (SMILES)
< 300	CCC(=O)N[C@H]1CC[C@@H](n2nncc2-c2ccc(-c3ccc4[nH]ccc4n3)cc2)C1 [Compound A113, N-((1S,3R)-3-{5-[4-(1H-Pyrrolo[3,2-b]pyridin-5-yl)-phenyl]-[1,2,3]triazol-1-yl}-cyclopentyl)-propionamide]
300 to 3000	CCC(=O)N[C@H]1CC[C@@H](n2nncc2-c2ccc(-c3nc4ccc(Cl)cc4o3)cn2)C1 [Compound A114, N-((1S,3R)-3-{5-[5-(6-Chloro-benzoxazol-2-yl)-pyridin-2-yl]-[1,2,3]triazol-1-yl}-cyclopentyl)-propionamide]
< 300	CCC(=O)N[C@H]1CC[C@@H](n2nncc2-c2ccc(-c3nc4ccccc4o3)cn2)C1 [Compound A115, N-{(1S,3R)-3-[5-(5-Benzoxazol-2-yl-pyridin-2-yl)-[1,2,3]triazol-1-yl]-cyclopentyl}-propionamide]
< 300	CCC(=O)N[C@H]1CC[C@@H](n2nncc2-c2ccc(-c3ccc4[nH]ccc4c3F)cn2)C1 [Compound A116, N-((1S,3R)-3-{5-[5-(4-Fluoro-1H-indol-5-yl)-pyridin-2-yl]-[1,2,3]triazol-1-yl}-cyclopentyl)-propionamide]
< 300	CCC(=O)N[C@H]1CC[C@@H](n2nncc2-c2ccc(-c3ccc4[nH]ccc4c3)cn2)C1 [Compound A117, N-((1S,3R)-3-{5-[5-(1H-Indol-5-yl)-pyridin-2-yl]-[1,2,3]triazol-1-yl}-cyclopentyl)-propionamide]
< 300	CCC(=O)N[C@H]1CC[C@@H](n2nncc2-c2ccc(-c3ccc4[nH]ccc4n3)cn2)C1 [Compound A118, N-((1S,3R)-3-{5-[5-(1H-Pyrrolo[3,2-b]pyridin-5-yl)-pyridin-2-yl]-[1,2,3]triazol-1-yl}-cyclopentyl)-propionamide]
< 300	CCC(=O)N[C@H]1CC[C@@H](n2nncc2-c2ccc(-c3ccc4[nH]ccc4c3F)c(F)c2)C1 [Compound A119, N-((1S,3R)-3-{5-[3-Fluoro-4-(4-fluoro-1H-indol-5-yl)-phenyl]-[1,2,3]triazol-1-yl}-cyclopentyl)-propionamide]
< 300	CCC(=O)N[C@H]1CC[C@@H](n2nncc2-c2ccc(-c3cc4cc[nH]c4cc3F)c(F)c2)C1 [Compound A120, N-((1S,3R)-3-{5-[3-Fluoro-4-(6-fluoro-1H-indol-5-yl)-phenyl]-[1,2,3]triazol-1-yl}-cyclopentyl)-propionamide]
< 300	CCC(=O)N[C@H]1CC[C@@H](n2nncc2-c2ccc(-c3ccc4cc[nH]c4c3)nc2)C1 [Compound A121, N-((1S,3R)-3-{5-[6-(1H-Indol-6-yl)-pyridin-3-yl]-[1,2,3]triazol-1-yl}-cyclopentyl)-propionamide]
300 to 3000	CCC(=O)N[C@H]1CC[C@@H](n2nncc2-c2ccc(-c3ccc4ccn(C)c4c3)nc2)C1 [Compound A122, N-((1S,3R)-3-{5-[6-(1-Methyl-1H-indol-6-yl)-pyridin-3-yl]-[1,2,3]triazol-1-yl}-cyclopentyl)-propionamide]
300 to 3000	CCC(=O)N[C@H]1CC[C@@H](n2nncc2-c2ccc(-c3cccc4[nH]ncc34)nc2)C1 [Compound A123, N-((1S,3R)-3-{5-[6-(1H-Indazol-4-yl)-pyridin-3-yl]-[1,2,3]triazol-1-yl}-cyclopentyl)-propionamide]
